For this assay, the system named is MV-4-11 cells. Description: Gene expression microarray analysis (Affymetrix PrimeView) and GSEA. The assay is classed as cell-based, human. More on the design: RFU PODN (11730768_x_at) / Fold change /veh PODN (11730768_x_at) / RFU LINC00158 (11744669_a_at) / Fold change /veh LINC00158 (11744669_a_at) / RFU DUSP10 (11751237_a_at) / Fold change /veh DUSP10 (11751237_a_at) / RFU ID3 (11757404_x_at) / Fold change /veh ID3 (11757404_x_at) / RFU PLEKHG5 (11737974_s_at) / Fold change /veh PLEKHG5 (11737974_s_at) / RFU LRRC4B (11730491_at) / Fold change /veh LRRC4B (11730491_at) / RFU GIMAP4 (11747438_a_at) / Fold change /veh GIMAP4 (11747438_a_at) / RFU KRT8 (11758183_x_at) / Fold change /veh KRT8 (11758183_x_at) / RFU CNN1 (11734310_a_at) / Fold change /veh CNN1 (11734310_a_at) / RFU VPS37D (11726825_at) / Fold change /veh VPS37D (11726825_at) / RFU C10orf10 (11716522_x_at) / Fold change /veh C10orf10 (11716522_x_at) / RFU KIR2DL2 /// KIR2DL4 /// KIR2DL5A /// KIR2DL5B /// KIR2DS1 /// KIR2DS2 /// KIR2DS3 /// KIR2DS4 /// KIR3DL3 /// KIR3DL3 /// KIR3DS1 (11738374_at) / Fold change /veh KIR2DL2 /// KIR2DL4 /// KIR2DL5A /// KIR2DL5B /// KIR2DS1 /// KIR2DS2 /// KIR2DS3 /// KIR2DS4 /// KIR3DL3 /// KIR3DL3 /// KIR3DS1 (11738374_at) / RFU C1QL1 (11718748_at) / Fold change /veh C1QL1 (11718748_at) / RFU TMPRSS4 (11747572_a_at) / Fold change /veh TMPRSS4 (11747572_a_at) / RFU HAMP (11756126_x_at) / Fold change /veh HAMP (11756126_x_at) / RFU RNFT2 (11725882_a_at) / Fold change /veh RNFT2 (11725882_a_at) / RFU NR4A2 (11747474_a_at) / Fold change /veh NR4A2 (11747474_a_at) / RFU ABCC12 (11746883_a_at) / Fold change /veh ABCC12 (11746883_a_at) / RFU TMEM136 (11760407_x_at) / Fold change /veh TMEM136 (11760407_x_at) / RFU CLDN22 /// WWC2 (11732394_at) / Fold change /veh CLDN22 /// WWC2 (11732394_at) / RFU HLA-DPB1 (11760878_x_at) / Fold change /veh HLA-DPB1 (11760878_x_at) / RFU SPINT1 (11716480_a_at) / Fold change /veh SPINT1 (11716480_a_at) / RFU GAP43 (11754022_s_at) / Fold change /veh GAP43 (11754022_s_at) / RFU A4GNT (11735810_at) / Fold change /veh A4GNT (11735810_at) / RFU PRB3 (11715151_x_at) / Fold change /veh PRB3 (11715151_x_at) / RFU TUBB4B (11761932_at) / Fold change /veh TUBB4B (11761932_at) / RFU CAPN14 (11732068_a_at) / Fold change /veh CAPN14 (11732068_a_at) / RFU TMCC2 (11721928_a_at) / Fold change /veh TMCC2 (11721928_a_at) / RFU IRGQ (11745062_a_at) / Fold change /veh IRGQ (11745062_a_at) / RFU FAM174B (11720279_a_at) / Fold change /veh FAM174B (11720279_a_at) / RFU TMPRSS4 (11748680_a_at) / Fold change /veh TMPRSS4 (11748680_a_at) / RFU FAM212B (11763350_a_at) / Fold change /veh FAM212B (11763350_a_at) / RFU PLEKHG5 (11743358_a_at) / Fold change /veh PLEKHG5 (11743358_a_at) / RFU ZSCAN30 (11745921_a_at) / Fold change /veh ZSCAN30 (11745921_a_at) / RFU CMKLR1 (11741424_a_at) / Fold change /veh CMKLR1 (11741424_a_at) / RFU LOC101060620 /// MAPK8IP1 (11723275_at) / Fold change /veh LOC101060620 /// MAPK8IP1 (11723275_at) / RFU SPTSSB (11747773_x_at) / Fold change /veh SPTSSB (11747773_x_at) / RFU PRSS12 (11739890_at) / Fold change /veh PRSS12 (11739890_at) / RFU BIN1 (11741810_x_at) / Fold change /veh BIN1 (11741810_x_at) / RFU WNT11 (11732464_a_at) / Fold change /veh WNT11 (11732464_a_at) / RFU C10orf10 (11716521_a_at) / Fold change /veh C10orf10 (11716521_a_at) / RFU C5orf56 (11738089_at) / Fold change /veh C5orf56 (11738089_at) / RFU CYB561 (11721691_x_at) / Fold change /veh CYB561 (11721691_x_at) / RFU ANKRD19P (11752326_a_at) / Fold change /veh ANKRD19P (11752326_a_at) / RFU OR2T12 /// OR2T33 /// OR2T8 (11738714_s_at) / Fold change /veh OR2T12 /// OR2T33 /// OR2T8 (11738714_s_at) / RFU VCAN (11748164_a_at) / Fold change /veh VCAN (11748164_a_at) / RFU JSRP1 (11732532_at) / Fold change /veh JSRP1 (11732532_at) / RFU KRTAP10-11 (11738290_x_at) / Fold change /veh KRTAP10-11 (11738290_x_at) / RFU MYO3A (11730013_a_at) / Fold change /veh MYO3A (11730013_a_at) / RFU EBF3 (11725865_a_at) / Fold change /veh EBF3 (11725865_a_at) / RFU CAMK2N1 (11719241_x_at) / Fold change /veh CAMK2N1 (11719241_x_at) / RFU C5orf56 (11738088_a_at) / Fold change /veh C5orf56 (11738088_a_at) / RFU OLFML3 (11715873_a_at) / Fold change /veh OLFML3 (11715873_a_at) / RFU LOC100653217 /// NTM (11731650_a_at) / Fold change /veh LOC100653217 /// NTM (11731650_a_at) / RFU MAPK11 (11762145_a_at) / Fold change /veh MAPK11 (11762145_a_at) / RFU FIZ1 (11724087_x_at) / Fold change /veh FIZ1 (11724087_x_at) / RFU OASL (11726364_x_at) / Fold change /veh OASL (11726364_x_at) / RFU SOX15 (11748057_x_at) / Fold change /veh SOX15 (11748057_x_at) / RFU CD79A (11719716_a_at) / Fold change /veh CD79A (11719716_a_at) / RFU HIST1H1D (11736915_at) / Fold change /veh HIST1H1D (11736915_at) / RFU CASKIN2 (11723855_a_at) / Fold change /veh CASKIN2 (11723855_a_at) / RFU LOC730098 (11760151_x_at) / Fold change /veh LOC730098 (11760151_x_at) / RFU OR4N2 (11742367_at) / Fold change /veh OR4N2 (11742367_at) / RFU PRRT2 (11749266_a_at) / Fold change /veh PRRT2 (11749266_a_at) / RFU SNX32 (11753110_a_at) / Fold change /veh SNX32 (11753110_a_at) / RFU CDHR5 (11726645_a_at) / Fold change /veh CDHR5 (11726645_a_at) / RFU RCAN1 (11760418_a_at) / Fold change /veh RCAN1 (11760418_a_at) / RFU FAM167A (11723789_a_at) / Fold change /veh FAM167A (11723789_a_at) / RFU FAM26E (11764081_at) / Fold change /veh FAM26E (11764081_at) / RFU ISYNA1 (11749810_s_at) / Fold change /veh ISYNA1 (11749810_s_at) / RFU ACY1 (11761880_at) / Fold change /veh ACY1 (11761880_at) / RFU 11764098_at / Fold change /veh 11764098_at / RFU SAMD14 (11745864_x_at) / Fold change /veh SAMD14 (11745864_x_at) / RFU NPB (11741838_a_at) / Fold change /veh NPB (11741838_a_at) / RFU TMPRSS6 (11731388_a_at) / Fold change /veh TMPRSS6 (11731388_a_at) / RFU KRTAP10-2 (11738614_at) / Fold change /veh KRTAP10-2 (11738614_at) / RFU ARHGAP8 /// PRR5-ARHGAP8 (11727945_x_at) / Fold change /veh ARHGAP8 /// PRR5-ARHGAP8 (11727945_x_at) / RFU KRTAP5-7 /// NADSYN1 (11734609_at) / Fold change /veh KRTAP5-7 /// NADSYN1 (11734609_at) / RFU RASL12 (11751679_a_at) / Fold change /veh RASL12 (11751679_a_at) / RFU CDKN2B (11736163_a_at) / Fold change /veh CDKN2B (11736163_a_at) / RFU PRF1 (11729649_at) / Fold change /veh PRF1 (11729649_at) / RFU, ZNF638 /// ZNF638-IT1 / Fold change vs veh, ZNF638 /// ZNF638-IT1 / RFU, PANK3 / Fold change vs veh, PANK3 / RFU, SH3YL1 / Fold change vs veh, SH3YL1 / RFU, ZEB2 / Fold change vs veh, ZEB2 / RFU, NRIP1 / Fold change vs veh, NRIP1 / RFU, PTTG1IP / Fold change vs veh, PTTG1IP / RFU, CAPN2 / Fold change vs veh, CAPN2 / RFU, MED14 / Fold change vs veh, MED14 / RFU, SNORA58 / Fold change vs veh, SNORA58 / RFU, C1orf63 / Fold change vs veh, C1orf63 / RFU, LRRFIP1 / Fold change vs veh, LRRFIP1 / RFU, NDUFAF7 / Fold change vs veh, NDUFAF7 / RFU, SLC12A2 / Fold change vs veh, SLC12A2 / RFU, IBTK / Fold change vs veh, IBTK / RFU, ESF1 / Fold change vs veh, ESF1 / Fold change vs veh, TMEM50B / RFU, TAOK1 / Fold change vs veh, TAOK1 / RFU, ACBD3 / Fold change vs veh, ACBD3 / RFU, TMA16 / Fold change vs veh, TMA16 / RFU, RWDD3 / Fold change vs veh, RWDD3 / RFU, BCAT1 / Fold change vs veh, BCAT1 / RFU, EDEM3 / Fold change vs veh, EDEM3 / RFU, TMEM33 / Fold change vs veh, TMEM33 / RFU, WDR75 / Fold change vs veh, WDR75 / RFU, AHCTF1 / Fold change vs veh, AHCTF1 / RFU, TFRC / Fold change vs veh, TFRC / RFU, ZDHHC17 / Fold change vs veh, ZDHHC17 / RFU, NOM1 / Fold change vs veh, NOM1 / RFU, ARL8B / Fold change vs veh, ARL8B / RFU, ZBTB11 / Fold change vs veh, ZBTB11 / RFU, TAMM41 / Fold change vs veh, TAMM41 / RFU, KIAA1704 /// LOC100996395 / Fold change vs veh, KIAA1704 /// LOC100996395 / RFU, ING1 / Fold change vs veh, ING1 / RFU, TRMT61B / Fold change vs veh, TRMT61B / RFU, FUBP3 / Fold change vs veh, FUBP3 / RFU, TP53 / Fold change vs veh, TP53 / RFU, TNKS2 / Fold change vs veh, TNKS2 / RFU, ZFP14 / Fold change vs veh, ZFP14 / RFU, ACTR2 / Fold change vs veh, ACTR2 / RFU, PPP3R1 / Fold change vs veh, PPP3R1 / RFU, PIK3R1 / Fold change vs veh, PIK3R1 / RFU, HNRNPA1 / Fold change vs veh, HNRNPA1 / RFU, RNF170 / Fold change vs veh, RNF170 / RFU, ZNF28 / Fold change vs veh, ZNF28 / RFU, RNGTT / Fold change vs veh, RNGTT / RFU, OGT / Fold change vs veh, OGT / RFU, BRD1 / Fold change vs veh, BRD1 / RFU, MARS / Fold change vs veh, MARS / RFU, ZNF655 / Fold change vs veh, ZNF655 / RFU, FAHD1 / Fold change vs veh, FAHD1 / RFU, BDP1 / Fold change vs veh, BDP1 / RFU, LRRCC1 / Fold change vs veh, LRRCC1 / RFU, ARID1A / Fold change vs veh, ARID1A / RFU, ZNF146 / Fold change vs veh, ZNF146 / RFU, ZNF330 / Fold change vs veh, ZNF330 / RFU, GPN3 / Fold change vs veh, GPN3 / RFU, C9orf123 / Fold change vs veh, C9orf123 / RFU, N4BP2L2 / Fold change vs veh, N4BP2L2 / RFU, ARFIP1 / Fold change vs veh, ARFIP1 / RFU, FAM179B / Fold change vs veh, FAM179B / RFU, BCL10 / Fold change vs veh, BCL10 / RFU, UHRF1BP1L / Fold change vs veh, UHRF1BP1L / RFU, BET1 / Fold change vs veh, BET1 / RFU, CNOT2 / Fold change vs veh, CNOT2 / RFU, ZNF268 / Fold change vs veh, ZNF268 / Fold change vs veh, ZNF507 / RFU, DGCR2 / Fold change vs veh, DGCR2 / RFU, WDSUB1 / Fold change vs veh, WDSUB1 / Fold change vs veh, HSP90B1 /// MIR3652 / RFU, ADSS / Fold change vs veh, ADSS / RFU, GK / Fold change vs veh, GK / RFU, ZNF148 / Fold change vs veh, ZNF148 / RFU, TAF9 / Fold change vs veh, TAF9 / RFU, SLC1A5 / Fold change vs veh, SLC1A5 / RFU, SLMO2 / Fold change vs veh, SLMO2 / RFU, ABCC4 / Fold change vs veh, ABCC4 / RFU, LOC101060439 /// RAP1B / Fold change vs veh, LOC101060439 /// RAP1B / RFU, RFX7 / Fold change vs veh, RFX7 / RFU, GTPBP10 / Fold change vs veh, GTPBP10 / RFU, CNEP1R1 / Fold change vs veh, CNEP1R1 / RFU, BIVM-ERCC5 /// ERCC5 / Fold change vs veh, BIVM-ERCC5 /// ERCC5 / RFU, ILF3 / Fold change vs veh, ILF3 / RFU 11762660_at / Fold change /veh 11762660_at / RFU VCAN (11757783_s_at) / Fold change /veh VCAN (11757783_s_at) / RFU DDX43 (11728927_at) / Fold change /veh DDX43 (11728927_at) / RFU KRT8 (11758188_x_at) / Fold change /veh KRT8 (11758188_x_at) / RFU NKD1 (11759106_at) / Fold change /veh NKD1 (11759106_at) / RFU SRD5A1 (11742802_a_at) / Fold change /veh SRD5A1 (11742802_a_at) / RFU TPSAB1 /// TPSB2 (11721975_s_at) / Fold change /veh TPSAB1 /// TPSB2 (11721975_s_at) / RFU GSTM3 (11746129_a_at) / Fold change /veh GSTM3 (11746129_a_at) / RFU IL23R (11737362_x_at) / Fold change /veh IL23R (11737362_x_at) / RFU TMEM51 (11727254_a_at) / Fold change /veh TMEM51 (11727254_a_at) / RFU PIWIL2 (11732686_x_at) / Fold change /veh PIWIL2 (11732686_x_at) / RFU ORM1 (11744905_x_at) / Fold change /veh ORM1 (11744905_x_at) / RFU CCDC152 (11743942_at) / Fold change /veh CCDC152 (11743942_at) / RFU ECM1 (11717891_a_at) / Fold change /veh ECM1 (11717891_a_at) / RFU IL23R (11748794_a_at) / Fold change /veh IL23R (11748794_a_at) / RFU TNFAIP8L3 (11732012_x_at) / Fold change /veh TNFAIP8L3 (11732012_x_at) / RFU MBOAT4 (11741988_at) / Fold change /veh MBOAT4 (11741988_at) / RFU 11764193_at / Fold change /veh 11764193_at / RFU TMEM53 (11763286_at) / Fold change /veh TMEM53 (11763286_at) / RFU MAGEB2 (11727129_at) / Fold change /veh MAGEB2 (11727129_at) / RFU TMEM200A (11744735_a_at) / Fold change /veh TMEM200A (11744735_a_at) / RFU CCDC152 (11751479_a_at) / Fold change /veh CCDC152 (11751479_a_at) / RFU FAM211A (11726209_a_at) / Fold change /veh FAM211A (11726209_a_at) / RFU RGS16 (11746705_a_at) / Fold change /veh RGS16 (11746705_a_at) / RFU VCAN (11755009_s_at) / Fold change /veh VCAN (11755009_s_at) / RFU RHOB (11743442_s_at) / Fold change /veh RHOB (11743442_s_at) / RFU RGS16 (11720943_a_at) / Fold change /veh RGS16 (11720943_a_at) / RFU RGS16 (11720944_at) / Fold change /veh RGS16 (11720944_at) / RFU, VPS4B / Fold change vs veh, VPS4B / RFU, CREB1 / Fold change vs veh, CREB1 / RFU, DNAJC13 / Fold change vs veh, DNAJC13 / RFU, GNAQ / Fold change vs veh, GNAQ / RFU, CDK5R1 / Fold change vs veh, CDK5R1 / RFU, ZRANB3 / Fold change vs veh, ZRANB3 / RFU, CUL4A / Fold change vs veh, CUL4A / RFU, CCNY / Fold change vs veh, CCNY / RFU, UFL1 / Fold change vs veh, UFL1 / RFU, COG3 / Fold change vs veh, COG3 / RFU, DIAPH2 / Fold change vs veh, DIAPH2 / RFU, SKA2 / Fold change vs veh, SKA2 / RFU, AFF3 / Fold change vs veh, AFF3 / RFU, LMF1 / Fold change vs veh, LMF1 / RFU, IPO11 / Fold change vs veh, IPO11 / RFU, DFFB / Fold change vs veh, DFFB / RFU, FOXP1 / Fold change vs veh, FOXP1 / RFU, CARD8 / Fold change vs veh, CARD8 / RFU, STRN3 / Fold change vs veh, STRN3 / RFU, ADK / Fold change vs veh, ADK / RFU, RASSF2 / Fold change vs veh, RASSF2 / RFU, WIPF1 / Fold change vs veh, WIPF1 / RFU, LARP1B / Fold change vs veh, LARP1B / RFU, RASA1 / Fold change vs veh, RASA1 / RFU, RB1 / Fold change vs veh, RB1 / RFU, PPFIA1 / Fold change vs veh, PPFIA1 / RFU, MAT2A / Fold change vs veh, MAT2A / RFU, CCT5 / Fold change vs veh, CCT5 / RFU, WDR92 / Fold change vs veh, WDR92 / RFU, CUX1 / Fold change vs veh, CUX1 / RFU, TTC7A / Fold change vs veh, TTC7A / RFU, TMEM135 / Fold change vs veh, TMEM135 / RFU, DEPTOR / Fold change vs veh, DEPTOR / RFU, CPM / Fold change vs veh, CPM / RFU, DNAJB6 / Fold change vs veh, DNAJB6 / RFU, CACNA2D3 / Fold change vs veh, CACNA2D3 / RFU, DTX4 / Fold change vs veh, DTX4 / RFU, TFCP2 / Fold change vs veh, TFCP2 / RFU, GMCL1 /// GMCL1P1 / Fold change vs veh, GMCL1 /// GMCL1P1 / RFU, AEBP2 / Fold change vs veh, AEBP2 / RFU, SNHG1 /// SNORD22 /// SNORD25 /// SNORD26 /// SNORD27 /// SNORD28 /// SNORD29 /// SNORD31 / Fold change vs veh, SNHG1 /// SNORD22 /// SNORD25 /// SNORD26 /// SNORD27 /// SNORD28 /// SNORD29 /// SNORD31 / Fold change (Aza/veh), C12orf56 (ProbeSet 11735607_a_at) / Fold change (ACY-1035/veh), C12orf56 (ProbeSet 11735607_a_at) / Fold change (Aza/veh), FGFR1OP (ProbeSet 11751329_s_at) / Fold change (ACY-1035/veh), FGFR1OP (ProbeSet 11751329_s_at) / Fold change (Aza/veh), VPS36 (ProbeSet 11739960_a_at) / Fold change (ACY-1035/veh), VPS36 (ProbeSet 11739960_a_at) / RFU SYPL1 (11715823_x_at) / Fold change /veh SYPL1 (11715823_x_at) / RFU IGFBP7 (11715501_s_at) / Fold change /veh IGFBP7 (11715501_s_at) / RFU REEP3 (11722064_at) / Fold change /veh REEP3 (11722064_at) / RFU IGLL1 (11728026_x_at) / Fold change /veh IGLL1 (11728026_x_at): dose or concentration left out as unconfirmed. The settings on record: MV-4-11 cells, 48 hours.

Consider `Nc1ccc(-c2cccs2)cc1NC(=O)c1ccc2c(c1)cc(C1CC1)n2CCN1CCOCC1` [ACY-1035], for which the “Fold change /veh PRB3 (11715151_x_at)” value is given as 0.95.

These data come from PMC5218480 (PLoS ONE, 2017).
